1 compound from patent US20090270259A1, “Novel Agrochemical Formulations” (priority 2005, published 2009) can be followed below.

The nature of the data set: Determination of the active substance content inside the film (UV-vis in THF, with and without ethanol wash). It counts as physicochemical. The note with it: Ecoflex film of Example 1, washed in 15 ml ethanol, UV-vis intensity ratio at 244 nm and 290 nm. Here is the method: For applications for the controlled release of active substance, it is useful to determine the active substance content enclosed in the film more specifically.
For this, 27.3 mg of a film charged with chlorpyrifos and prepared by the procedure described above were dissolved in 15 ml of tetrahydrofuran (THF), which is a good solvent both for the active substance and also for the polymer. 0.5 milliliters of this solution were further diluted to a volume of 20 ml with THF; a UV-vis spectrum was recorded for the dilute solution.
In a comparison experiment, the film was firstly washed in 15 ml of ethanol and dried before being analyzed as described above in a solution of THF by means of UV-vis spectroscopy.
Reference spectra were measured a series of THF solutions which, as well as 33.5 mg/l of Ecoflex® comprising Ecoflex® pellets, also comprised chlorpyrifos in concentrations of from 0 to 24 mg/l. A suitable comparison parameter which clearly reflects the chlorpyrifos content is the intensity ratio I2/I1 of characteristic peaks in the UV-vis spectrum at the wavelengths 244 nm and 290 nm.

Take `CCOP(=S)(OCC)Oc1nc(Cl)c(Cl)cc1Cl` [chlorpyrifos]: the “active substance washed away with ethanol (fraction on the film surface, directly available)” value is reported as 76%. The “chlorpyrifos used in the film preparation that remains in the film after washing with ethanol (enclosed fraction, released in a delayed manner)” value (dried, dissolved in THF) came out at 24%.
